Reference: patent US20050256177A1, “Phenyl derivatives for the treatment of abnormal cell growth” (Pfizer Inc, priority 2004, published 2005)

Experiments:
[1] = Metabolite profiling after single oral dose of [14C]-labelled parent drug in healthy male subjects; assay type: in vivo, human; details: for presence in HPLC-radiochromatogram of human fecal metabolites: human feces; for presence in HPLC-radiochromatogram of human fecal metabolites / presence in HPLC-radiochromatogram of circulating metabolites / presence in HPLC-radiochromatogram of human urinary metabolites: single 100 mg oral dose of labelled compound; for presence in HPLC-radiochromatogram of circulating metabolites: human plasma; for presence in HPLC-radiochromatogram of human urinary metabolites / matrices in which the metabolite was detected (humans): human urine; for matrices in which the metabolite was detected (humans): feces, plasma
Procedure: Four normal healthy male subjects between the ages of 26 and 55 years participated in the study. The subjects entered the Clinical Research Facility 12 hours before dosing, and remained there for up to 384 hours after dosing under continuous medical observation. All subjects had fasted at least 8 hours and were given a single 100 mg oral dose of the labeled compound (˜93 μCi/subject). The dose was administered in an open fashion in the morning. A standard meal was provided 4 hours later. The dosing formulation was prepared by dissolving the radiolabeled material in citrate buffered vehicle that was prepared by adding 100 ml of water to a 4 oz. amber bottle containing a dry powder blend of citric acid and sodium citrate. Total volume of dosage given was 240 ml.
After dosing, urine samples were collected for up to 16 days between the following time points: 0-12, 12-24, 24-48, 48-72, 72-96, 96-120, 120-144, 144-168, 168-192, 192-216, 216-240, 240-264, 264-288, 288-312, 312-336, 336-360 and 360-384 hours post-dose (i.e., first sample collected between 0-12 hours, second sample collected between 12-24 hours, and so on). The total volume of the urine samples was recorded after each collection. Feces were collected as passed, from time of dosing until 384 hours after dosing.
Blood sufficient to provided a minimum of 7 ml of plasma was collected, in heparinized tubes, from each subject at 0 (just before dosing), 1, 2, 4, 6, 8, 10, 12, 16, 24, 48, 72, 96, 120, 144 and 168 hours after the dose. Within 1 hour after collection, the blood samples were centrifuged in a refrigerated centrifuge and plasma was separated from whole blood. Samples collected over the first 168 hours post-dose were divided into two aliquots (3 ml and 4 ml). The 3 ml aliquots were used for the quantitation of unchanged 3-(4-bromo-2,6-difluoro-benzyloxy)-5-[3-(4-pyrrolidin-1-yl-butyl)-ureido]-isothiazole-4-carboxylic acid amide The other 4 ml aliquots were used for the analysis of total radioactivity. For metabolite identification, blood sufficient to yield 20 ml of plasma was collected at 4, 6, 8, 12, 16 and 24 hours after the dose. All samples were labeled, immediately frozen, and stored at −20° C. until analysis.
Radioactivity in urine, feces, and plasma was measured by liquid scintillation counting. All samples were counted in a Wallac 1409 liquid scintillation counter with quench correction determined by monitoring the Compton edge of the external gamma source. Radioactivity less than twice the background value of the pre-dose matrix was considered to be below the limit of quantification.
Urine samples obtained between the following time points were pooled for each subject: 0-12, 12-24, 24-48, 48-72 hours after the dose (i.e., first sample collected between 0-12 hours, second sample collected between 12-24 hours, and so on). The pooled samples (˜100 ml) were lyophilized overnight. The residues were extracted with methanol twice (10 and 5 ml). The supernatants were combined and 0.2 ml aliquots were counted in a liquid scintillation counter to determine the extraction efficiency. The supernatants were evaporated to dryness in a Turbo Vap LV evaporator. The residues were reconstituted with 1 ml of MeOH. Aliquots (50 μl) were injected onto the HPLC column without further purification.
Fecal homogenates were pooled (up to 0-264 hours) for each subject. The pooled samples (˜10 g) were suspended in 25 ml of acetonitrile. The suspensions were sonicated for 10 min, then stirred on a magnetic stirrer for 1 hour and centrifuged. Supernatants were separated and the residues further extracted with 25 ml of acetonitrile. The two supernatants were combined and 1 ml aliquots were counted in a scintillation counter to determine the extraction efficiency. The organic solvents were evaporated to dryness in a Turbo Vap LV evaporator and the residues were reconstituted in 1 ml of MeOH:water (50:50). Aliquots (100 μl) of concentrated fecal extracts were injected onto the HPLC column. […]

[2] = Metabolite detection in beagle dogs, methods similar to those used for human samples; assay type: in vivo; details: dog urine, feces, bile, plasma
[3] = Metabolite detection in Sprague-Dawley rats, methods similar to those used for human samples; assay type: in vivo; details: rat urine, feces, bile, plasma

SMILES	presence in HPLC-radiochromatogram of human fecal metabolites [1]	presence in HPLC-radiochromatogram of circulating metabolites [1]	presence in HPLC-radiochromatogram of human urinary metabolites [1]	matrices in which the metabolite was detected (humans) [1]	matrices in which the metabolite was detected (beagle dogs) [2]	matrices in which the metabolite was detected (rats) [3]
NC(=O)c1c(OCc2c(F)cc(Br)cc2F)nsc1NC(=O)NCCCCN1CCCC1 [3-(4-Bromo-2,6-difluoro-benzyloxy)-5-[3-(4-pyrrolidin-1-yl-butyl)-ureido]-isothiazole-4-carboxylic acid amide, reference compound]	presence	presence	presence			
NC(=O)c1c(OCc2c(F)cc(Br)cc2F)nsc1NC(=O)NCCCCN1CC=CC1=O [Metabolite M8, 3-(4-bromo-2,6-difluoro-benzyloxy)-5-{3-[4-(2-oxo-2,5-dihyro-pyrrol-1-yl)-butyl]-ureido}-isothiazole-4-carboxylic acid amide]					detected in feces, bile and plasma of beagle dogs	detected in feces, bile and plasma of beagle dogs and Sprague-Dawley Rats
NC(=O)c1c(OCc2c(F)cc(Br)cc2F)nsc1NC(=O)NCCCCNCCCC(=O)O [Metabolite M1, 4-(4-{3-[3-(4-bromo-2,6-difluoro-benzyloxy)-4-carbamoyl-isothiazol-5-yl]-ureido}-butylamino)-butyric acid]	presence		presence	detected in urine and feces of humans		

Continued, in another order:

presence in HPLC-radiochromatogram of human fecal metabolites [1]	presence in HPLC-radiochromatogram of circulating metabolites [1]	presence in HPLC-radiochromatogram of human urinary metabolites [1]	matrices in which the metabolite was detected (humans) [1]	SMILES	matrices in which the metabolite was detected (beagle dogs) [2]	matrices in which the metabolite was detected (rats) [3]
presence	presence		detected in feces and plasma	NC(=O)c1c(OCc2c(F)cc(Br)cc2F)nsc1NC(=O)NCCCC(=O)O [Metabolite M9, 4-{3-[3-(4-bromo-2,6-difluorobenzyloxy)-4-carbamoyl-isothiazol-5-yl]-ureido}-butyric acid]	found in dog feces	
	presence	presence	detected in urine and plasma	O=C(O)c1c(F)cc(Br)cc1F [Metabolite M4, 4-bromo-2,6-difluorobenzoic acid]		found in rat urine
		presence	detected in urine of humans	CC(=O)NC(CSCc1c(F)cc(Br)cc1F)C(=O)O (stereo not shown) [Metabolite M5, 2-Acetylamino-3-(4-bromo-2,6-difluoro-benzylsulfanyl)-propionic acid]	detected in urine of humans and beagle dogs	
		presence	detected in urine of humans	NC(=O)c1c(OCc2c(F)cc(Br)cc2F)nsc1NC(=O)NCCCC[N+]1([O-])CCCC1 [Metabolite M2, 3-(4-bromo-2,6-difluoro-benzyloxy)-5-[3-(4-pyrrolidin-1-yl-N-oxide-butyl)-ureido]-isothiazole-4-carboxylic acid amide]	in urine, feces, bile and plasma of Beagle dogs	
